From ChEMBL document CHEMBL1201862, “PubChem BioAssay data set” (2004)
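Interpolation was linear, between the two tested concentrations surrounding the appropriate level; five concentrations were tested over 48 hours in 96-well plates. GI50: concentration for 50% inhibition of growth.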 The source made the active and inactive calls. Rule as the data show it: active = GI50 up to about 1.1 µM and inactive = higher.

Legend:
Test in all cases: growth of human tumour cells (NCI), 48 h
[1] = tested on: OVCAR-3
[2] = tested on: NCI/ADR-RES
[3] = tested on: OVCAR-4
[4] = tested on: A549
[5] = tested on: SNB-19
[6] = tested on: MCF7
[7] = tested on: 786-0
[8] = tested on: NCI-H226
[9] = tested on: RXF 393
[10] = tested on: SK-MEL-2
[11] = tested on: PC-3
[12] = tested on: CAKI-1
[13] = tested on: RPMI-8226
[14] = tested on: SNB-75
[15] = tested on: ACHN
[16] = tested on: HCC 2998
[17] = tested on: MOLT-4
[18] = tested on: A498
[19] = tested on: IGROV-1
[20] = tested on: COLO 205

Measured: GI50

Cc1nc2c(O)cccc2c(=O)[nH]1
inactive: [1] 542 µM | [2] 548 µM | [3] 399 µM | [4] 360 µM | [5] 670 µM | [6] 621 µM | [7] > 1000 µM | [8] 203 µM | [9] 158 µM | [10] > 1000 µM | [11] 451 µM | [12] 256 µM | [13] 135 µM | [14] 233 µM | [15] 348 µM | [16] 418 µM | [17] 339 µM | [18] 419 µM | [19] 405 µM

O=C(O)c1ccc(C(=O)c2ccccc2)c(C(=O)O)c1
inactive: [1] > 100 µM | [2] > 100 µM | [3] > 100 µM | [4] > 100 µM | [5] > 100 µM | [6] > 100 µM | [7] > 100 µM | [8] > 100 µM | [9] > 100 µM | [10] > 100 µM | [11] > 100 µM | [20] > 100 µM | [12] > 100 µM | [13] > 100 µM | [14] > 100 µM | [15] > 100 µM | [16] > 100 µM | [17] > 100 µM | [18] > 100 µM | [19] > 100 µM

Nc1cnc2c(c1)c(=O)nc1n2CCS1
inactive: [1] > 100 µM | [2] > 100 µM | [3] > 100 µM | [4] > 100 µM | [5] > 100 µM | [6] > 100 µM | [7] > 100 µM | [8] > 100 µM | [9] > 100 µM | [10] > 100 µM | [11] > 100 µM | [20] > 100 µM | [12] 72.4 µM | [13] 74 µM | [14] 86.9 µM | [15] > 100 µM | [16] > 100 µM | [17] > 100 µM | [18] > 100 µM

N#Cc1c(-c2ccccc2)c(/C=N/c2ccc(F)cc2)c(=O)n2c1[nH]c1ccccc12
inactive: [1] 19.7 µM | [2] 21 µM | [3] 40.6 µM | [4] 19.7 µM | [5] 28.3 µM | [6] 36.6 µM | [7] 24.7 µM | [8] 27.6 µM | [9] 22.5 µM | [10] 26.9 µM | [11] 28.6 µM | [20] 29.8 µM | [12] 13.6 µM | [13] 3.06 µM | [14] 39 µM | [15] 18.5 µM | [16] 21.2 µM | [18] 29.4 µM | [19] 25.4 µM

CCCCC(/C=C\COC1CCCCO1)=C/C(=O)OCC (stereo not given)
inactive: [1] 52.7 µM | [2] > 100 µM | [3] 61.2 µM | [4] 56.6 µM | [5] 98.2 µM | [6] 46.9 µM | [7] 65.2 µM | [8] > 100 µM | [9] 60.7 µM | [10] > 100 µM | [11] 44.9 µM | [20] > 100 µM | [12] > 100 µM | [13] 25.9 µM | [14] 48.8 µM | [15] > 100 µM | [16] > 100 µM | [17] 25.1 µM | [18] > 100 µM | [19] 61.2 µM

Nc1cc2c3c(cccc3c1)NC2=O
inactive: [1] > 100 µM | [2] > 100 µM | [3] > 100 µM | [4] 69.2 µM | [5] 84.9 µM | [6] 27.9 µM | [7] > 100 µM | [8] > 100 µM | [9] > 100 µM | [10] > 100 µM | [11] > 100 µM | [20] > 100 µM | [12] 24.6 µM | [13] > 100 µM | [14] 14.6 µM | [15] 25.1 µM | [16] > 100 µM | [17] 24 µM | [18] > 100 µM | [19] > 100 µM

CN1CC=C(OP(=O)(NCc2ccccc2)N(CCCl)CCCl)CC1 (stereo not given)
inactive: [1] > 100 µM | [2] > 100 µM | [3] > 100 µM | [5] > 100 µM | [6] > 100 µM | [7] > 100 µM | [8] > 100 µM | [9] 40.9 µM | [10] > 100 µM | [11] > 100 µM | [20] > 100 µM | [12] > 100 µM | [13] > 100 µM | [14] 89.3 µM | [15] > 100 µM | [16] > 100 µM | [17] > 100 µM | [18] > 100 µM | [19] > 100 µM

CC1(C)C2CCC(CN)(C2)C1N (stereo not given)
inactive: [1] > 100 µM | [2] > 100 µM | [3] > 100 µM | [4] > 100 µM | [5] > 100 µM | [6] > 100 µM | [7] > 100 µM | [8] > 100 µM | [9] > 100 µM | [10] > 100 µM | [11] > 100 µM | [20] > 100 µM | [12] > 100 µM | [13] > 100 µM | [14] > 54.5 µM | [15] > 100 µM | [16] 9.42 µM | [17] > 100 µM | [18] > 100 µM | [19] > 100 µM

COC(=O)[C@H](Cc1ccccc1)NC(=O)N(CCN(CCC#N)C(=O)N[C@H](C(=O)OC)C(C)C)c1ccccc1
inactive: [1] > 100 µM | [2] > 100 µM | [3] 53.3 µM | [4] > 100 µM | [5] > 100 µM | [6] > 100 µM | [7] > 100 µM | [8] > 100 µM | [9] > 100 µM | [10] 41.8 µM | [11] > 100 µM | [20] > 100 µM | [12] > 100 µM | [13] 33.2 µM | [14] > 100 µM | [15] > 100 µM | [16] > 100 µM | [17] 24.3 µM | [18] > 100 µM | [19] 57.5 µM

COC12c3ccccc3-c3ccccc3C1[C@@H](C(=O)O)[C@H]2C(=O)O (stereo not given in full)
inactive: [1] > 10 µM | [2] > 10 µM | [3] > 10 µM | [5] > 10 µM | [6] > 10 µM | [7] > 10 µM | [8] > 10 µM | [9] > 10 µM | [10] > 10 µM | [11] > 10 µM | [20] > 10 µM | [12] > 10 µM | [13] > 10 µM | [14] > 10 µM | [15] > 10 µM | [16] > 10 µM | [17] > 10 µM | [18] > 10 µM | [19] > 10 µM
